Results reported in patent US6489165B2, “Chondrocyte-like cells useful for tissue engineering and methods” (The Regents of the University of California, priority 1997, dated 2002).

Columns and labels:
Human dermal fibroblasts [1] = assay: [35S]-sulfate incorporation (normalized to [3H]-thymidine) in micromass cultures; format: cell-based
Procedure: Thus, human dermal fibroblasts were seeded in monolayer or micromass cultures at a density of 2.0×10^5 cell/ml for 24 hours and left untreated or treated with 40 mM lactate to induce hypoxia. Cultures were labeled with [^3H]-thymidine at 2 μCi/ml and Na2^35SO4 at 5 μCi/ml 24 hours prior to harvest. Relative levels of [^35S]-sulfate uptake (ratio of [^35S]-sulfate to [^3H]-thymidine) were determined by liquid scintillation counting of soluble cell extracts using a dual label DPM counting program. […] Human dermal fibroblasts were seeded in high density micromass cultures at a density of 2.0×10^5 cell/ml, treated with lactate at varying concentrations (0-80 mM) for a 24 hour period, and labeled with [^35S]-sulfate.

Human dermal fibroblasts [2] = assay: Northern hybridization of total cellular RNA with DIG-labeled probes; format: cell-based
Procedure: Gene Expression. […] The expression of TGF-β1 was also examined in cells cultured under identical conditions. […] Human dermal fibroblasts were cultured in monolayer without or with 40 mM lactate or in micromass cultures without or with 40 mM lactate at a density of 3.0×10^5 cell/ml for 24 hours. Total cellular RNA extracted using the Ultraspec isolation system (Biotecx Laboratories, Inc., Houston, Tex.) and fractionated by formaldehyde-agarose gel electrophoresis was hybridized with DIG-labeled probes to human chondroitin sulfate proteoglycan (aggrecan) core protein and TGF-β1. An equal amount of RNA (5 μg) was loaded in each lane and 28s ribosomal RNA served as an internal control.
Human dermal fibroblasts were cultured in monolayer without or with 40 mM lactate or in micromass cultures without or with 40 mM lactate at a density of 2.0×10^5 cell/ml for 24 hours. Total cellular RNA extracted using the Ultraspec isolation system (Biotecx Laboratories, Inc., Houston, Tex.) and fractionated by formaldehyde-agarose gel electrophoresis was hybridized with a DIG-labeled probe to human type I collagen. An equal amount of RNA (5 μg) was loaded in each lane and 28s ribosomal RNA served as an internal control.
Human dermal fibroblasts were seeded in micromass cultures at a density of 2.0×10^5 cells/ml for 24 hours in the presence of 40 mM lactate and varying concentrations of the protein kinase C inhibitors, staurosporine (0, 50, 100, 150, and 200 nM in lanes 1-5, respectively). Total cellular RNA extracted using the Ultraspec isolation system (Biotecx Laboratories, Inc., Houston, Tex.) and fractionated by formaldehyde-agarose gel electrophoresis was hybridized with DIG-labeled probes to human chondroitin sulfate proteoglycan (aggrecan) core protein and type I collagen. An equal amount RNA (5 μg) was loaded in each lane and 28s ribosomal RNA served as an internal control.
(§1) The production of sulfated proteoglycans was assessed by staining with 1% Alcian blue dye (pH 1.0), while monoclonal antibodies to collagen types I (Rockland, Gilbertsville, Pa.) and II (CIICl, Developmental Studies Hybridoma Bank, Iowa City, Iowa), aggrecan (Chemicon, Temecula, Calif.), and cartilage link protein (9/30/8-A-4, DSHB) were used for immuno-histochemical detection employing the Histostain-Plus king (Zymed, South San Francisco, Calif.) with a DAB substrate for final visualization. The expression of type I collagen and transforming growth factor-β1 (TGF-β1) was detected by northern hybridization. Cell-polymer composites were analyzed by scanning electron microscopy and were embedded in glycol methacrylate, sectioned, and stained with hematoxylin and eosin.

Human dermal fibroblasts [3] = assay: Alcian blue staining of sulfated proteoglycan in monolayer or micromass cultures; format: cell-based; settings: high density micromass, 40 mM lactate, 24 hours, vs untreated and monolayer cultures, P<0.05
Procedure: (§2) Experiments were designed to examine the effects of functional hypoxia and high density culture conditions on the phenotype of dermal fibroblasts. Human dermal fibroblasts obtained from neonatal foreskin samples were cultured in high density micromass cultures. Briefly, a 10 μl drop of a cell solution at a concentration of 2.0×10^4-4.0×10^4 cells/μl was plated in a 24-well polystyrene tissue culture dish. The cultures were incubated for one hour at 37° C., 5% CO2 to allow the cells to adhere to the bottom of the wells and to enhance cell:cell interactions. Following incubation, the cells were flooded with 1 ml of medium (bringing the final concentration to 2.0×10^5 to 4.0×10^5 cells/ml) containing exogenous factors that promote differentiation along the chondrogenic pathway. Cultures were made functionally hypoxic by the addition of lactate (10-40 mM) to the culture medium. The cells were cultured for a period of 24 hours.
Matrix Deposition. Treated micromass cultures synthesized highly negatively charged sulfated proteoglycan aggregates, as detected using histological and biochemical methods. […] The intensity of Alcian blue staining from guanidine-HCl extracts was measured using a microplate reader at a wavelength of 595 nm.
The expression of type I collagen and transforming growth factor-β1 (TGF-β1) was detected by northern hybridization.

Human dermal fibroblasts [4] = assay: Cell morphology in high density micromass cultures by microscopy; format: cell-based
Procedure: as §2
Human neonatal foreskin fibroblasts (HFFs) were cultured in high density micromasses (2.0×10^7 cells/ml in 10 μl) and treated with 40 mM lactic acid and 200 nM staurosporine for a period of 24 hours as previously described by Examples 1 and 2. […]

Human dermal fibroblasts [5] = settings: 20 mM lactate; cited from earlier work
[6] = tested on: Human neonatal foreskin fibroblasts (HFFs); assay: Immunohistochemical detection of matrix proteins in micromass cultures; format: cell-based
Procedure: Human neonatal foreskin fibroblasts (HFFs) were cultured in high density micromasses (2.0×10^7 cells/ml in 10 μl) and treated with 40 mM lactic acid and 200 nM staurosporine for a period of 24 hours as previously described by Examples 1 and 2. After the initial culture period, the cells were maintained in chemically defined medium consisting of minimum essential medium supplemented with a 1× mixture of Insulin-Transferrin-Selenium (Life Technologies, Gibco BRL, Gaithersburg, Md.), 4.5 g/l glucose, 10 mM β-glycerophosphate, and antibiotics. Dermal fibroblasts isolated from donor tissue were similarly cultured. Additionally, dermal fibroblasts were seeded on three-dimensional polymer scaffolds composed of a non-woven polyglycolic acid (PGA) (Davis and Geck, Danbury, Conn.) mesh reinforced in a dilute solution of 100 kDa poly(L-lactic acid) (PLLA) (Polysciences, Warrington, Pa.).
as §1

[7] = tested on: fibroblast micromass cultures; assay: Cell viability by direct microscopic observation; format: cell-based, human; settings: staurosporine alone without lactate priming, at otherwise effective doses
Description: Accordingly, practice of the invention includes treating the cells with the second agent so as to allow a PKA-dependent antagonistic pathway to predominate and to drive chondrogenic differentiation. Suitable chondrogenic differentiation agents include Bisindolylmaleimide I and calphostin C. PKA activators such as dibutyryl cAMP and adenylate cyclase activators (which results in cAMP production and PKA activity) like forskolin may also be effective. A preferred such agent is staurosporine (a protein kinase inhibitor to which PKC is most sensitive), preferably in a range of 150-200 nM.

[8] = micromass 2.0×10^5 cell/ml, lactate 0-80 mM, 24 hours
[9] = micromass 3.0×10^5 cell/ml, 40 mM lactate, 24 hours, vs untreated and monolayer
[10] = whole mount micromass cultures, after three days

SMILES | relative [35S]-sulfate incorporation (ratio to [3H]-thymidine) (Human dermal fibroblasts [1]; high density micromass, 40 mM lactate, 24 hours, vs corresponding cultures, P<0.05) | lactate concentration at which sulfate uptake peaks (Human dermal fibroblasts [1]; [8]) [mM] | sulfate uptake versus lactate concentration (Human dermal fibroblasts [1]; [8]) | TGF-β1 expression levels (Human dermal fibroblasts [2]; HFFs on PGA/PLLA discs, all groups) | expression of type I collagen (Human dermal fibroblasts [2]; HFFs on PGA/PLLA discs, treated vs untreated control) | type I collagen gene expression (Human dermal fibroblasts [2]; micromass 2.0×10^5 cell/ml, 40 mM lactate, 24 hours) | TGF-β1 gene expression (Human dermal fibroblasts [2]; [9]) | aggrecan core protein gene expression (Human dermal fibroblasts [2]; [9]) | intensity of Alcian blue staining (sulfated proteoglycan content), 595 nm (Human dermal fibroblasts [3]) | fibroblast outgrowth from the micromass cultures (Human dermal fibroblasts [4]; 40 mM lactate as compared to 20 mM lactate) | hyaluronan synthesis (Human dermal fibroblasts [5]) | type I collagen immunostaining ([6]; micromass cultures) | aggrecan immunostaining [6, 10] | cartilage link protein immunostaining [6, 10] | sulfate incorporation (Human dermal fibroblasts [1]; staurosporine alone without lactate priming, at otherwise effective doses) | cell viability [7] | aggrecan core protein gene expression (Human dermal fibroblasts [2]; micromass, 40 mM lactate plus 150 nM staurosporine, 24 hours) | aggrecan core protein gene expression (Human dermal fibroblasts [2]; micromass, 40 mM lactate plus 200 nM staurosporine, 24 hours) | type I collagen gene expression (Human dermal fibroblasts [2]; micromass, 40 mM lactate plus staurosporine 50-200 nM (all supplemented cultures), 24 hours) | visible effect in lactate-treated micromass cultures (Human dermal fibroblasts [4]; staurosporine about 5-20 nM)
CC(O)C(=O)O (centres unmarked) [lactate] | Significantly greater levels | 20 to 40 | dose-dependent increase | remained similar in all groups | greater in untreated control cultures | noticeable decrease | marked increase | marked increase | significantly greater degree of staining | less fibroblast outgrowth | increased | only on the periphery | Minimal staining | Minimal staining |  |  |  |  |  | 
CN[C@@H]1C[C@H]2O[C@@](C)([C@@H]1OC)n1c3ccccc3c3c4c(c5c6ccccc6n2c5c31)C(=O)NC4 [staurosporine] |  |  |  |  |  |  |  |  |  |  |  |  |  |  | decreased levels | deleterious effect | notable increase | notable increase | marked decrease | no visible effect
